Reference: patent publication US12258354B2, “AhR modulators” (IDEAYA BIOSCIENCES, INC., priority 2018, dated 2025)

Molecular target: T1, hAhR (Homo sapiens, UniProt P35869)
T1 construct: Stably integrated DRE-luciferase cell lines were generated by transducing the both cell lines with Cignal XRE luciferase reporter; endogenous in cells; host or cells: HEPG2 DRE-Luc cells (only the XRE luciferase reporter was transduced)
T1 sequence (P35869 11-848): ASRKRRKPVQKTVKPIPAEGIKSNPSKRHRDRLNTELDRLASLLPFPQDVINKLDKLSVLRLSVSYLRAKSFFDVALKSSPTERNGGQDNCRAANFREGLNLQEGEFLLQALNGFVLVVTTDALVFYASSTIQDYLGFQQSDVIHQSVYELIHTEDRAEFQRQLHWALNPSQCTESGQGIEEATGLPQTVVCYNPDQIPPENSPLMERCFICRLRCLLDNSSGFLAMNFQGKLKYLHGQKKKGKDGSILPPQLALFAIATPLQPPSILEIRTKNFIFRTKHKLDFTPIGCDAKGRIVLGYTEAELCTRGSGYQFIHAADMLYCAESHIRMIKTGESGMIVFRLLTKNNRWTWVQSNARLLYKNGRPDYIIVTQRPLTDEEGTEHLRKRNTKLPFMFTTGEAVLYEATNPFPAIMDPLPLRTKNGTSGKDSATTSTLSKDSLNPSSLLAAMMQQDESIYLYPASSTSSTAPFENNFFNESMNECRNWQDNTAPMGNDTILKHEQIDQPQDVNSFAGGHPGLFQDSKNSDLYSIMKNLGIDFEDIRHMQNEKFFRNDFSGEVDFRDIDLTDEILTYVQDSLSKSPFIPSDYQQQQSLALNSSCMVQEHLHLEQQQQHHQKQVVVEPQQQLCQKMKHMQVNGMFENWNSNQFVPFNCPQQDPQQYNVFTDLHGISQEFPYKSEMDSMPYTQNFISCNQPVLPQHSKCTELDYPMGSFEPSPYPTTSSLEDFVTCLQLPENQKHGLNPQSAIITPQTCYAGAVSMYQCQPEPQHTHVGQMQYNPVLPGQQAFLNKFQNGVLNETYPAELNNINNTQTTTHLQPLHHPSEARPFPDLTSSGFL
Assay: DRE-luciferase transcriptional reporter assay in HEPG2 DRE-Luc cells, TCDD-induced (antagonist mode)
Assay type: cell-based
Conditions: relative IC50, 3 nM TCDD, 24-hour incubation, firefly luciferase readout
Experimental: HEPG2 and HEPA1C1C7 cells were maintained in MEM and αMEM without nucleosides supplemented with 10% heat inactivated FBS respectively. Stably integrated DRE-luciferase cell lines were generated by transducing the both cell lines with Cignal XRE luciferase reporter (Qiagen) lentiviral particles according to the manufacturer protocol. For both cell lines stably integrated reporter cell lines were selected for the presence of 2 μg/mL puromycin. Following selection of stably integrated cell line pools, clonal cell lines were isolated by limiting dilution in 96-well plates. Transcriptional assays were performed by seeding 100 μL of cells at a density of 250,000 or 100,000 cells/mL, for HEPG2 and HEPA1C1C7 DRE-Luc cells respectively, into 96-well cell culture plates in OptiMEM supplemented with 0.5% heat inactivated FBS and allowed to attach overnight. For modulator assays, the compounds were added in a semi-log dose response using a D300e Digital Dispenser (Tecan) followed normalization with vehicle (DMSO). Immediately following compound addition 10 μL of 2,3,7,8-Tetrachlorodibenzo-p-dioxin (TCDD) was added to the cells to a final concentration of 3 nM or 0.3 nM for the HEPG2 and HEPA1C1C7 DRE-Luc cells respectively. Following 24-hour incubation, the medium was removed and the cells were lysed in 25 μL of Reporter Lysis Buffer (Promega). Firefly luciferase activity was measured immediately following the addition of 50 μL Luciferase Assay Reagent (Promega). The percent maximal activity for each point was determined using the following equation: (RLUsample−RLUvehicle−TCDD)/(RLUvehicle+TCDD RLUvehicle−TCDD)*100. The relative IC50, defined as the compound concentration required to reduce the TCDD induced response between the top and bottom plateau of each individual dose response curve by half, for each compound was determined using Prism 7 (GraphPad Software).

Row | IC50 | Structure (SMILES)
1 | < 200 nM | Cc1cc(-c2ncc3cc(C(F)(F)F)ccc3n2)ccc1N1CCn2nc(N)c(C)c2C1=O [Example 113, 2-amino-3-methyl-5-(2-methyl-4-(6-(trifluoromethyl)quinazolin-2-yl)phenyl)-6,7-dihydropyrazolo[1,5-a]pyrazin-4 (5H)-one]
2 | < 200 nM | Cc1cc(-c2ncc3cc(C(F)(F)F)ccc3n2)ccc1N1CC(CO)n2ncc(C)c2C1=O (centres unmarked) [Example 114, 7-(hydroxymethyl)-3-methyl-5-(2-methyl-4-(6-(trifluoromethyl)quinazolin-2-yl)phenyl)-6,7-dihydropyrazolo[1,5-a]pyrazin-4 (5H)-one]
3 | < 200 nM | Cc1cc(-c2ncc3nc(C(F)(F)F)ccc3n2)ccc1N1CCOc2cnn(C)c2C1=O [compound 001, 1-methyl-7-(2-methyl-4-(6-(trifluoromethyl)pyrido[3,2-d]pyrimidin-2-yl)phenyl)-6,7-dihydro-1H-pyrazolo[3,4-f][1,4]oxazepin-8 (5H)-one]
4 | < 200 nM | Cc1cc(-c2ncc3cc(C(F)(F)F)ccc3n2)ccc1N1CCn2ncc(C)c2C1=O [compound 002, 3-methyl-5-(2-methyl-4-(6-(trifluoromethyl)quinazolin-2-yl)phenyl)-6,7-dihydropyrazolo[1,5-a]pyrazin-4 (5H)-one]
5 | 200 to 500 nM | Cc1cc(N2CCn3ncc(C)c3C2=O)c(C)cc1-c1ncc2cc(C(F)(F)F)ccc2n1 [compound 003, 5-(2,5-dimethyl-4-(6-(trifluoromethyl)quinazolin-2-yl)phenyl)-3-methyl-6,7-dihydropyrazolo[1,5-a]pyrazin-4 (5H)-one]
6 | < 200 nM | Cc1cc(-c2ncc3nc(C(F)(F)F)ccc3n2)ccc1N1CCc2cnn(C)c2C1=O [compound 004, 1-methyl-6-(2-methyl-4-(6-(trifluoromethyl)pyrido[3,2-d]pyrimidin-2-yl)phenyl)-1,4,5,6-tetrahydro-7H-pyrazolo[3,4-c]pyridin-7-one]
7 | < 200 nM | Cc1cc(N2CCOc3cnn(C)c3C2=O)c(C)cc1-c1ccc2nc(C(F)(F)F)cc(C)c2n1 [compound 005, 7-(2,5-dimethyl-4-(8-methyl-6-(trifluoromethyl)-1,5-naphthyridin-2-yl)phenyl)-1-methyl-6,7-dihydro-1H-pyrazolo[3,4-f][1,4]oxazepin-8 (5H)-one]
8 | < 200 nM | Cc1cc(-c2ccc3nc(C(F)(F)F)ccc3n2)ccc1N1CCn2ncc(C)c2C1=O [compound 006, 3-methyl-5-(2-methyl-4-(6-(trifluoromethyl)-1,5-naphthyridin-2-yl)phenyl)-6,7-dihydropyrazolo[1,5-a]pyrazin-4 (5H)-one]
9 | < 200 nM | Cc1cc(N2CCn3ncc(C)c3C2=O)c(F)cc1-c1ccc2nc(C(F)(F)F)ccc2n1 [compound 007, 5-(2-fluoro-5-methyl-4-(6-(trifluoromethyl)-1,5-naphthyridin-2-yl)phenyl)-3-methyl-6,7-dihydropyrazolo[1,5-a]pyrazin-4 (5H)-one]
10 | < 200 nM | Cc1cc(-c2ccc3cc(C(F)(F)F)ccc3n2)ccc1N1CCn2ncc(C)c2C1=O [compound 008, 3-methyl-5-(2-methyl-4-(6-(trifluoromethyl)quinolin-2-yl)phenyl)-6,7-dihydropyrazolo-[1,5-a]pyrazin-4 (5H)-one]
11 | < 200 nM | Cc1cc(-c2ncc3cc(C(F)(F)F)cc(C)c3n2)ccc1N1CCn2ncc(C)c2C1=O [compound 009, 3-methyl-5-(2-methyl-4-(8-methyl-6-(trifluoromethyl)quinazolin-2-yl)phenyl)-6,7-dihydropyrazolo[1,5-a]pyrazin-4 (5H)-one]
12 | 1000 to 10000 nM | Cc1cc(N2CCc3cnn(C)c3C2=O)c(C)cc1-c1ccc2nc(C(F)(F)F)ccc2n1 [compound 010, 6-(2,5-dimethyl-4-(6-(trifluoromethyl)-1,5-naphthyridin-2-yl)phenyl)-1-methyl-1,4,5,6-tetrahydro-7H-pyrazolo[3,4-c]pyridin-7-one]
13 | < 200 nM | Cc1cc(N2CCc3cnn(C)c3C2=O)c(F)cc1-c1ccc2nc(C(F)(F)F)ccc2n1 [compound 011, 6-(2-fluoro-5-methyl-4-(6-(trifluoromethyl)-1,5-naphthyridin-2-yl)phenyl)-1-methyl-1,4,5,6-tetrahydro-7H-pyrazolo[3,4-c]pyridin-7-one]
14 | 500 to 1000 nM | Cc1cc(N2CCOc3cnn(C)c3C2=O)c(F)cc1-c1ccc2nc(C(F)(F)F)ccc2n1 [compound 012, 7-(2-fluoro-5-methyl-4-(6-(trifluoromethyl)-1,5-naphthyridin-2-yl)phenyl)-1-methyl-6,7-dihydro-1H-pyrazolo[3,4-f][1,4]oxazepin-8 (5H)-one]
15 | < 200 nM | Cc1cnn2c1C(=O)N(c1ccc(-c3ncc4cc(C(F)(F)F)ccc4n3)cc1F)CC2 [compound 013, 5-(2-fluoro-4-(6-(trifluoromethyl)quinazolin-2-yl)phenyl)-3-methyl-6,7-dihydropyrazolo[1,5-a]pyrazin-4 (5H)-one]
16 | < 200 nM | Cc1cc(-c2ncc3cc(C(F)(F)F)ccc3n2)ccc1N1Cc2cnn(C)c2C1=O [compound 014, 1-methyl-5-(2-methyl-4-(6-(trifluoromethyl)quinazolin-2-yl)phenyl)-4,5-dihydropyrrolo[3,4-c]pyrazol-6 (1H)-one]
17 | < 200 nM | Cc1cc(-c2ncc3cc(C(F)(F)F)ccc3n2)ccc1N1CCc2cnn(C)c2C1=O [compound 015, 1-methyl-6-(2-methyl-4-(6-(trifluoromethyl)quinazolin-2-yl)phenyl)-1,4,5,6-tetrahydro-7H-pyrazolo[3,4-c]pyridin-7-one]
18 | < 200 nM | Cc1cc(-c2ncc3nc(C(F)(F)F)ccc3n2)ccc1N1CCn2ncc(C)c2C1=O [compound 016, 3-methyl-5-(2-methyl-4-(6-(trifluoromethyl)pyrido[3,2-d]pyrimidin-2-yl)phenyl)-6,7-dihydropyrazolo[1,5-a]pyrazin-4 (5H)-one]
19 | < 200 nM | Cc1cc(-c2ccc3nc(C(F)(F)F)cc(C)c3n2)ccc1N1CCn2ncc(C)c2C1=O [compound 017, 3-methyl-5-(2-methyl-4-(8-methyl-6-(trifluoromethyl)-1,5-naphthyridin-2-yl)phenyl)-6,7-dihydropyrazolo[1,5-a]pyrazin-4 (5H)-one]
20 | 200 to 500 nM | Cc1cc(N2CCn3ncc(C)c3C2=O)c(C)cc1-c1ccc2nc(C(F)(F)F)ccc2n1 [compound 018, 5-(2,5-dimethyl-4-(6-(trifluoromethyl)-1,5-naphthyridin-2-yl)phenyl)-3-methyl-6,7-dihydropyrazolo[1,5-a]pyrazin-4 (5H)-one]
21 | < 200 nM | Cc1cc(N2CCn3ncc(C)c3C2=O)c(C)cc1-c1ncc2nc(C(F)(F)F)ccc2n1 [compound 019, 5-(2,5-dimethyl-4-(6-(trifluoromethyl)pyrido[3,2-d]pyrimidin-2-yl)phenyl)-3-methyl-6,7-dihydropyrazolo[1,5-a]pyrazin-4 (5H)-one]
22 | < 200 nM | Cc1cc(N2CCn3ncc(C)c3C2=O)c(C)cc1-c1ccc2nc(C(F)(F)F)cc(C)c2n1 [compound 020, 5-(2,5-dimethyl-4-(8-methyl-6-(trifluoromethyl)-1,5-naphthyridin-2-yl)phenyl)-3-methyl-6,7-dihydropyrazolo[1,5-a]pyrazin-4 (5H)-one]
23 | < 200 nM | Cc1cc(N2CCn3ncc(C)c3C2=O)c(F)cc1-c1ncc2nc(C(F)(F)F)ccc2n1 [compound 021, 5-(2-fluoro-5-methyl-4-(6-(trifluoromethyl)pyrido[3,2-d]pyrimidin-2-yl)phenyl)-3-methyl-6,7-dihydropyrazolo[1,5-a]pyrazin-4 (5H)-one]
